Values of other authors in publication PMC2930141 (Biochimica et biophysica acta, 2010).

Columns and labels:
[1] = aqueous
[2] = molecular target: human carbonic anhydrase I (hCA I) (Homo sapiens, UniProt P00915)
hCA I = details: bound to hCA I

human carbonic anhydrase I (hCA I), sequence (P00915 whole entry): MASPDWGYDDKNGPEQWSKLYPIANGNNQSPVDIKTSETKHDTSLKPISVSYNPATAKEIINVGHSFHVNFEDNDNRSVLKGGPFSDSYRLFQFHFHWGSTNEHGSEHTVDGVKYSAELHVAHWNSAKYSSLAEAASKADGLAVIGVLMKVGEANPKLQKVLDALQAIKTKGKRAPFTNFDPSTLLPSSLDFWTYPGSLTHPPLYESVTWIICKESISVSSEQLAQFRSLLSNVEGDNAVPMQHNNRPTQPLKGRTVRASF

| Structure (SMILES) | pKa of sulfonamide group [1] | emission maximum of the enzyme-bound fluorophore [2] | pKa from pH dependent binding affinity (hCA I) | pKa from pH dependent binding affinity (hCA II) |
| --- | --- | --- | --- | --- |
| NS(=O)(=O)c1ccccc1 [benzenesulfonamide] | 9.79 | – | – | – |
| CN(C)c1cccc2c(S(N)(=O)=O)cccc12 [dansylamide, 5-dimethylamino-1-naphthalene sulfonamide] | – | 458 nm | 6.3 | 6.4 |
